From US10750743B2, “Pyridazinone herbicides” (E.I. DU PONT DE NEMOURS AND COMPANY, priority 2015, dated 2020)

Assays:
Format in all cases: in vivo
[1] = system: rice (Oryza sativa); assay: Test B flooded paddy test, visual rating; conditions: Flood, 250 g ai/ha, applied to paddy water, rated after 13 to 15 d
Method: (§1) Plant species in the flooded paddy test selected from rice (Oryza sativa), sedge, umbrella (small-flower umbrella sedge, Cyperus difformis), ducksalad (Heteranthera limosa), and barnyardgrass (Echinochloa crus-galli) were grown to the 2-leaf stage for testing. At time of treatment, test pots were flooded to 3 cm above the soil surface, treated by application of test compounds directly to the paddy water, and then maintained at that water depth for the duration of the test. Treated plants and controls were maintained in a greenhouse for 13 to 15 d, after which time all species were compared to controls and visually evaluated. Plant response ratings, summarized in Table B, are based on a scale of 0 to 100 where 0 is no effect and 100 is complete control. A dash (-) response means no test result.

[2] = system: barnyardgrass (Echinochloa crus-galli); assay: Test B flooded paddy test, visual rating; conditions: Flood, 250 g ai/ha, applied to paddy water, rated after 13 to 15 d
Method: as §1

[3] = system: sedge, umbrella (small-flower umbrella sedge, Cyperus difformis); assay: Test B flooded paddy test, visual rating; conditions: Flood, 250 g ai/ha, applied to paddy water, rated after 13 to 15 d
Method: as §1

[4] = system: ducksalad (Heteranthera limosa); assay: Test B flooded paddy test, visual rating; conditions: Flood, 250 g ai/ha, applied to paddy water, rated after 13 to 15 d
Method: as §1

[5] = system: foxtail, giant (giant foxtail, Setaria faberii); assay: Test A preemergence, directed soil spray, visual injury rating; conditions: 0 is no effect, 100 is complete control
How it was run: (§2)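 Seeds sown in a loam soil–sand blend received a directed preemergence soil spray of test chemical in a non-phytotoxic solvent mixture with surfactant. Postemergence plants were sprayed at 2 to 10 cm, one- to two-leaf stage. After approximately 10 d in greenhouse, injury was visually rated 0 (no effect) to 100 (complete control) against untreated controls.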

[6] = system: barnyardgrass (Echinochloa crus-galli); assay: as above; conditions: 0 is no effect, 100 is complete control
How it was run: as §2

[7] = system: pigweed (Amaranthus retroflexus); assay: as above; conditions: 0 is no effect, 100 is complete control
How it was run: as §2

[8] = system: ryegrass, It. (Italian ryegrass, Lolium multiflorum); assay: as above; conditions: 0 is no effect, 100 is complete control
How it was run: as §2

[9] = system: kochia (Kochia scoparia); assay: as above; conditions: 0 is no effect, 100 is complete control
How it was run: as §2

[10] = system: ragweed (common ragweed, Ambrosia elatior); assay: as above; conditions: 0 is no effect, 100 is complete control
How it was run: as §2

[11] = system: wheat (Triticum aestivum); assay: Test A postemergence application, visual injury rating; conditions: 0 to 100 scale, 0 no effect, 100 complete control
How it was run: as §2

[12] = system: foxtail, giant (giant foxtail, Setaria faberii); assay: as above; conditions: 0 to 100 scale, 0 no effect, 100 complete control
How it was run: as §2

[13] = system: barnyardgrass (Echinochloa crus-galli); assay: as above; conditions: 0 to 100 scale, 0 no effect, 100 complete control
How it was run: as §2

[14] = system: pigweed (Amaranthus retroflexus); assay: as above; conditions: 0 to 100 scale, 0 no effect, 100 complete control
How it was run: as §2

[15] = system: corn (Zea mays); assay: as above; conditions: 0 to 100 scale, 0 no effect, 100 complete control
How it was run: as §2

[16] = system: blackgrass (Alopecurus myosuroides); assay: as above; conditions: 0 to 100 scale, 0 no effect, 100 complete control
How it was run: as §2

[17] = system: ryegrass, It. (Italian ryegrass, Lolium multiflorum); assay: as above; conditions: 0 to 100 scale, 0 no effect, 100 complete control
How it was run: as §2

[18] = system: kochia (Kochia scoparia); assay: as above; conditions: 0 to 100 scale, 0 no effect, 100 complete control
How it was run: as §2

[19] = system: ragweed (common ragweed, Ambrosia elatior); assay: as above; conditions: 0 to 100 scale, 0 no effect, 100 complete control
How it was run: as §2

[20] = system: galium (catchweed bedstraw, Galium aparine); assay: as above; conditions: 0 to 100 scale, 0 no effect, 100 complete control
How it was run: as §2

Structure (SMILES) | Rice plant response rating (0 to 100 scale, 0 is no effect, 100 is complete control) [1] | Barnyardgrass plant response rating (0 to 100 scale, 0 is no effect, 100 is complete control) [2] | Sedge, Umbrella plant response rating (0 to 100 scale, 0 is no effect, 100 is complete control) [3] | Ducksalad plant response rating (0 to 100 scale, 0 is no effect, 100 is complete control) [4] | Plant response rating (0 to 100 scale), Foxtail, Giant ([5]; 125 g ai/ha) | Plant response rating (0 to 100 scale), Barnyardgrass ([6]; 125 g ai/ha) | Plant response rating (0 to 100 scale), Pigweed ([7]; 125 g ai/ha) | Plant response rating (0 to 100 scale), Ryegrass, It. ([8]; 125 g ai/ha) | Plant response rating (0 to 100 scale), Kochia ([9]; 125 g ai/ha) | Plant response rating (0 to 100 scale), Ragweed ([10]; 125 g ai/ha) | Wheat plant response rating ([11]; 125 g ai/ha) | Foxtail, Giant plant response rating ([12]; 125 g ai/ha) | Barnyardgrass plant response rating ([13]; 125 g ai/ha) | Pigweed plant response rating ([14]; 125 g ai/ha) | Corn plant response rating ([15]; 125 g ai/ha) | Blackgrass plant response rating ([16]; 125 g ai/ha) | Ryegrass, It. plant response rating ([17]; 125 g ai/ha) | Kochia plant response rating ([18]; 125 g ai/ha) | Ragweed plant response rating ([19]; 125 g ai/ha) | Galium plant response rating ([20]; 125 g ai/ha) | other results
COC(=O)Oc1c(C)nn(C)c(=O)c1-c1c(C)ccc2cc(C)oc12 [Compound 17] | 0 | 0 | 0 | 0 | 10 | 0 | 100 | 90 | 100 | 90 | 0 | 50 | 20 | 100 | 0 | 40 | 100 | 90 | 80 | 100 | Plant response rating (0 to 100 scale), Foxtail, Giant ([5]; 31 g ai/ha): 0; Plant response rating (0 to 100 scale), Barnyardgrass ([6]; 31 g ai/ha): 0; Plant response rating (0 to 100 scale), Pigweed ([7]; 31 g ai/ha): 30; Plant response rating (0 to 100 scale), Ryegrass, It. ([8]; 31 g ai/ha): 40; Plant response rating (0 to 100 scale), Kochia ([9]; 31 g ai/ha): 40; Plant response rating (0 to 100 scale), Ragweed ([10]; 31 g ai/ha): 30; Wheat plant response rating ([11]; 31 g ai/ha): 0; Foxtail, Giant plant response rating ([12]; 31 g ai/ha): 20; Barnyardgrass plant response rating ([13]; 31 g ai/ha): 10; Pigweed plant response rating ([14]; 31 g ai/ha): 60; Corn plant response rating ([15]; 31 g ai/ha): 0; Blackgrass plant response rating ([16]; 31 g ai/ha): 10; Ryegrass, It. plant response rating ([17]; 31 g ai/ha): 50; Kochia plant response rating ([18]; 31 g ai/ha): 70; Ragweed plant response rating ([19]; 31 g ai/ha): 70; Galium plant response rating ([20]; 31 g ai/ha): 80
CCc1sc2ncccc2c1-c1c(O)c(C)nn(C)c1=O [Compound 18] | 0 | 0 | 0 | 0 | 0 | 0 | 0 | 0 | 0 | 0 | 0 | 0 | 0 | 0 | 0 | 0 | 0 | 0 | 0 | 0 | Plant response rating (0 to 100 scale), Foxtail, Giant ([5]; 500 g ai/ha): 0; Plant response rating (0 to 100 scale), Barnyardgrass ([6]; 500 g ai/ha): 0; Plant response rating (0 to 100 scale), Pigweed ([7]; 500 g ai/ha): 10; Plant response rating (0 to 100 scale), Ryegrass, It. ([8]; 500 g ai/ha): 0; Plant response rating (0 to 100 scale), Kochia ([9]; 500 g ai/ha): 0; Plant response rating (0 to 100 scale), Ragweed ([10]; 500 g ai/ha): 0; Wheat plant response rating ([11]; 500 g ai/ha): 0; Foxtail, Giant plant response rating ([12]; 500 g ai/ha): 0; Barnyardgrass plant response rating ([13]; 500 g ai/ha): 0; Pigweed plant response rating ([14]; 500 g ai/ha): 30; Corn plant response rating ([15]; 500 g ai/ha): 0; Blackgrass plant response rating ([16]; 500 g ai/ha): 0; Ryegrass, It. plant response rating ([17]; 500 g ai/ha): 0; Kochia plant response rating ([18]; 500 g ai/ha): 0; Ragweed plant response rating ([19]; 500 g ai/ha): 0; Galium plant response rating ([20]; 500 g ai/ha): 20
CCOC(=O)Oc1c(C)nn(C)c(=O)c1-c1c(CC)sc2ncccc12 [Compound 19] | 0 | 0 | 0 | 0 | 0 | 0 | 0 | 0 | 0 | 0 | 0 | 0 | 0 | 10 | 0 | 0 | 0 | 0 | 0 | 0 | Plant response rating (0 to 100 scale), Foxtail, Giant ([5]; 500 g ai/ha): 0; Plant response rating (0 to 100 scale), Barnyardgrass ([6]; 500 g ai/ha): 0; Plant response rating (0 to 100 scale), Pigweed ([7]; 500 g ai/ha): 20; Plant response rating (0 to 100 scale), Ryegrass, It. ([8]; 500 g ai/ha): 0; Plant response rating (0 to 100 scale), Kochia ([9]; 500 g ai/ha): 0; Plant response rating (0 to 100 scale), Ragweed ([10]; 500 g ai/ha): 0; Wheat plant response rating ([11]; 500 g ai/ha): 0; Foxtail, Giant plant response rating ([12]; 500 g ai/ha): 0; Barnyardgrass plant response rating ([13]; 500 g ai/ha): 0; Pigweed plant response rating ([14]; 500 g ai/ha): 30; Corn plant response rating ([15]; 500 g ai/ha): 0; Blackgrass plant response rating ([16]; 500 g ai/ha): 0; Ryegrass, It. plant response rating ([17]; 500 g ai/ha): 0; Kochia plant response rating ([18]; 500 g ai/ha): 0; Ragweed plant response rating ([19]; 500 g ai/ha): 0; Galium plant response rating ([20]; 500 g ai/ha): 20
CCc1sc2ncccc2c1-c1c(OC(=O)OC(C)C)c(C)nn(C)c1=O [Compound 20] | 0 | 0 | 0 | 0 | 0 | 0 | 0 | 0 | 0 | 0 | 0 | 0 | 0 | 20 | 0 | 0 | 0 | 0 | 0 | 10 | Plant response rating (0 to 100 scale), Foxtail, Giant ([5]; 500 g ai/ha): 0; Plant response rating (0 to 100 scale), Barnyardgrass ([6]; 500 g ai/ha): 0; Plant response rating (0 to 100 scale), Pigweed ([7]; 500 g ai/ha): 40; Plant response rating (0 to 100 scale), Ryegrass, It. ([8]; 500 g ai/ha): 0; Plant response rating (0 to 100 scale), Kochia ([9]; 500 g ai/ha): 0; Plant response rating (0 to 100 scale), Ragweed ([10]; 500 g ai/ha): 0; Wheat plant response rating ([11]; 500 g ai/ha): 0; Foxtail, Giant plant response rating ([12]; 500 g ai/ha): 0; Barnyardgrass plant response rating ([13]; 500 g ai/ha): 0; Pigweed plant response rating ([14]; 500 g ai/ha): 50; Corn plant response rating ([15]; 500 g ai/ha): 0; Blackgrass plant response rating ([16]; 500 g ai/ha): 0; Ryegrass, It. plant response rating ([17]; 500 g ai/ha): 0; Kochia plant response rating ([18]; 500 g ai/ha): 0; Ragweed plant response rating ([19]; 500 g ai/ha): 0; Galium plant response rating ([20]; 500 g ai/ha): 40
